Measured values from ChEMBL document CHEMBL1177826, “Synthesis of isosteric selenium analog of the PPARbeta/delta agonist GW501516 and comparison of biological activity” (Bioorg Med Chem Lett, 2010).
Calls of active or inactive are those of the source. No cut-off for these calls is given here.

Columns and labels:
[1] = molecular target: T1, PPAR delta/gamma (Homo sapiens) (UniProt P37231+Q03181); assay: Activation of […] in human HaCaT cells assessed as induction of ANGPTL4 expression by PCR; format: cell-based
T1 sequence (P37231 whole entry, looked up): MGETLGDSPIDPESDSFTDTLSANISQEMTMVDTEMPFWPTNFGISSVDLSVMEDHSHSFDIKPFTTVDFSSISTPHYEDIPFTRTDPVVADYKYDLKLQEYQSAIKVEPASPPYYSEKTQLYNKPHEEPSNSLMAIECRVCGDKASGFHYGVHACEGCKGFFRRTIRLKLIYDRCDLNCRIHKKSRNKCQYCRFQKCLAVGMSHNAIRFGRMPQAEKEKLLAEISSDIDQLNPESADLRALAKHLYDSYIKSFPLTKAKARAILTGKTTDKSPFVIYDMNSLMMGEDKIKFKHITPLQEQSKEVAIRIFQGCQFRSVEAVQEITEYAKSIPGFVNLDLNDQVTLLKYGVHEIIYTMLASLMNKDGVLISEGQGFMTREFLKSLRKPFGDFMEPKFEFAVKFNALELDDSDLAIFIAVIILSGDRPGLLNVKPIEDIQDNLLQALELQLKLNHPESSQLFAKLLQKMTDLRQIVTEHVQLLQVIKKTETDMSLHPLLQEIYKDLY
T1 sequence (Q03181 whole entry, looked up): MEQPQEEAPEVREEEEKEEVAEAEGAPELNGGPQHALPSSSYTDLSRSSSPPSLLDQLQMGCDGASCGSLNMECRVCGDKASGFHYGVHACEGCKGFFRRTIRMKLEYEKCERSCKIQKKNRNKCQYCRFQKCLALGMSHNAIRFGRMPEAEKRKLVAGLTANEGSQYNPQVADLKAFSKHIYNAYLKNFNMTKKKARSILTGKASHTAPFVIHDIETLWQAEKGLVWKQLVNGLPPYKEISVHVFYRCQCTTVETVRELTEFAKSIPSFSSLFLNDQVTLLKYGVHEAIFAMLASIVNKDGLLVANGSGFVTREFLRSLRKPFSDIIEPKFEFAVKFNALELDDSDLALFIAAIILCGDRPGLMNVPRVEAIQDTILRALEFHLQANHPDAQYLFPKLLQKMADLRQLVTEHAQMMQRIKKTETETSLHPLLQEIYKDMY

[2] = molecular target: T1, PPAR delta/gamma (Homo sapiens); assay: Activation of […] in human HaCaT cells assessed as inhibition of cellular proliferation at 10 uM after 72 hrs; format: cell-based

## Cc1cc([Se]Cc2sc(-c3ccc(C(F)(F)F)cc3)nc2C)ccc1OCC(=O)O
[1]
  Activity: Active
[2]
  Activity: Active
